According to PubChem BioAssay (NCI):
Values joined by “and” are separate entries in the source; they are usually repeats but may differ in a detail not shown here. Equal values may be shown once.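 Interpolation was linear, between the two tested concentrations surrounding the appropriate level; five concentrations were tested over 48 hours in 96-well plates. At the GI50, growth is halved. TGI: total growth inhibition.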

Tests used:
Test in all cases: DTP human tumour cell line panel, 48 h
[1] = test system: XF 498 CNS
[2] = test system: DMS 273 small cell lung
[3] = test system: KM20L2 colon
[4] = test system: SNB-78 CNS
[5] = test system: LXFL 529 NSCLC
[6] = test system: MDA-N
[7] = test system: RXF-631 renal

| SMILES | TGI [1] | TGI [2] | TGI [3] | TGI [4] | TGI [5] | TGI [6] | TGI [7] | GI50 [6] |
| --- | --- | --- | --- | --- | --- | --- | --- | --- |
| O=C1/C(=C\c2ccccc2)c2ccccc2N1/N=C\c1ccccc1 | > 100 µM | > 100 µM | > 100 µM | > 100 µM | – | – | – | – |
| COc1cc2c3cc1Oc1c(OC)c(OC)cc4c1C(Cc1ccc(cc1)Oc1cc(ccc1O)CC3N(C)CC2)N(C)CC4 (centres undefined) | – | – | 24.7 µM | 64.6 µM | 27.8 µM | 17 µM | – | – |
| COc1cc(-c2oc3c(OC)c(O)cc(O)c3c(=O)c2OC)ccc1O | – | – | – | – | – | 59.5 µM | – | – |
| Cc1ccc(Nc2nc(C)c(C(/C=C/c3ccc4c(c3)OCO4)=N/Nc3ccc([N+](=O)[O-])cc3[N+](=O)[O-])s2)c([N+](=O)[O-])c1 | 56.2 µM | > 100 µM | > 100 µM | > 100 µM | > 100 µM | – | > 100 µM | – |
| Cc1cccc(N=C2NC(=O)C(CC(=O)Nc3ccccc3Cl)S2)c1 (centres undefined) | > 100 µM | > 100 µM | > 100 µM | > 100 µM | > 100 µM | – | > 100 µM | – |
| O=c1[nH]cnc2c1ncn2CCCCO | – | – | > 100 µM | > 100 µM | > 100 µM | – | – | – |
| CCCCCCCCCCCCCCCCCc1nnc(N)o1 | > 100 µM | > 100 µM | > 100 µM | > 100 µM | > 100 µM | – | > 100 µM | – |
| O=c1cc(-c2ccc(O)cc2)oc2cc(O)cc(O)c12 | 61.6 µM | 40.2 µM | 88.2 µM | 39.5 µM | 37.3 µM | – | – | – |
| O=c1[nH]c2c(c3ccccc13)CCc1ccccc1-2 | – | > 100 µM | > 100 µM | > 100 µM | > 100 µM | – | – | – |
| O=C1C=C(OCCCl)C(=O)c2c(O)ccc(O)c21 | – | – | – | – | – | 0.29 µM and 0.539 µM | – | 0.236 µM |
| O=C(CC(=O)c1ccccc1)C(=O)NC12CC3CC(CC(C3)C1)C2 | > 100 µM | > 70.2 µM | > 100 µM | > 100 µM | > 100 µM | – | – | – |
| NS(=O)(=O)c1ccc(NC(=O)c2cccc3c(Nc4ccc(S(N)(=O)=O)cc4)c4ccccc4nc23)cc1 | 74.6 µM | 5.15 µM | > 100 µM | > 100 µM | 85.9 µM | – | 11.1 µM | – |
| O=S(=O)(N/N=C/c1ccc(Cl)cc1Cl)c1ccccc1 | > 100 µM | > 100 µM | > 100 µM | > 100 µM | > 100 µM | – | > 100 µM | – |
| O=C1NC(c2ccccc2)N=C2Oc3ccccc3C=C12 (centres undefined) | – | – | – | – | – | 1.12 µM | – | – |
| COC(=O)c1nc(N)nc(C(=O)OC)c1C(=O)c1ccccc1 | > 100 µM | – | > 100 µM | – | > 100 µM | – | > 100 µM | – |
| CCOC(=O)/C=C1\Oc2ccccc2C1(C)O (centres undefined) | – | > 100 µM | > 100 µM | > 100 µM | > 100 µM | – | – | – |
| COc1ccc(OC)c(/C=N/N=C2\C(=O)Nc3c(Cl)cc(Cl)cc32)c1 | – | – | – | – | – | 40.9 µM | – | – |
| COc1cc2nncc(SCc3ccc(Cl)c(Cl)c3)c2cc1OC | 81.3 µM | > 100 µM | > 100 µM | > 100 µM | > 100 µM | > 100 µM | > 100 µM | – |
| CN(C)CC1=Nc2cccc3cccc(c23)N1 | – | – | – | – | – | 35 µM | – | – |
| Clc1ccc(/C=C/c2nc(Cl)c(-c3ccc(Cl)cc3)c(Cl)n2)cc1 | – | – | – | – | – | > 100 µM | – | – |
| C=C(C)C(=O)O[C@H]1CC2=CC(CC(C)=C[C@H]3OC(=O)C(=C)C13)OC2=O (some centres undefined) | – | – | – | – | – | 89.4 µM | – | – |
| COC1OC(C(C)O)C2OC(C)(C)OC12 (centres undefined) | – | – | – | – | – | > 100 µM | – | – |
| COc1ccc(C=C2C(=O)NC(=O)NC2=O)cc1OCc1ccccc1 | – | – | – | – | – | 32.7 µg/mL | – | 14.8 µg/mL |

| SMILES | TGI [1] | TGI [2] | TGI [3] | TGI [4] | TGI [5] | TGI [6] | TGI [7] | GI50 [6] |
| --- | --- | --- | --- | --- | --- | --- | --- | --- |
| CC(=O)O[C@H]1CC[C@@]2(C)C(=C/C(=N\[N+](=O)[O-])[C@H]3C4CCC([C@H](C)CCCC(C)C)[C@@]4(C)CCC32)C1 (some centres undefined) | > 100 µM | > 100 µM | > 100 µM | – | > 100 µM | – | – | – |
| c1ccc2c(CN3CCC(C4CCN(Cc5cccc6ccccc56)CC4)CC3)cccc2c1 | 10.4 µM | 22.9 µM | 10.3 µM | 73.7 µM | 21.8 µM | 25.2 µM | 35.5 µM | – |
| CCOC(=O)C1Oc2ccc([N+](=O)[O-])cc2C1(C)O (centres undefined) | > 100 µM | > 100 µM | – | > 100 µM | > 100 µM | – | – | – |
| Nc1ccc(C2=Nc3ccccc3SC(c3ccccc3O)C2)cc1 (centres undefined) | 78.5 µM | > 100 µM | > 100 µM | – | > 100 µM | – | > 100 µM | – |
| [O-][n+]1c2cc(CN3CCOCC3)c(CN3CCOCC3)cc2[n+]([O-])c2c(O)cccc21 | 7.42 µM | 15 µM | 15.4 µM | 21.9 µM | 7.73 µM | – | > 55.9 µM | – |
| O=C(O)c1cc(=O)c2cc(C(=O)c3cccs3)c(Cl)c(Cl)c2o1 | – | – | > 100 µM | > 100 µM | > 100 µM | – | – | – |
| COC1(Cc2ccccc2)C(=O)c2ccccc2N1C(C)=O (centres undefined) | > 100 µM | > 100 µM | > 100 µM | > 100 µM | > 100 µM | – | > 100 µM | – |
| Cc1ccc([N+](=O)[O-])c2c(NCCC[N+](C)(C)[O-])ccnc12 | – | – | – | – | – | > 100 µM | – | – |
| O=C(O)C1CC2CC(=O)C1C2 (centres undefined) | > 100 µM | > 100 µM | > 100 µM | > 100 µM | > 100 µM | – | > 100 µM | – |
| O=C1OC(OC/C(Br)=C(/Br)COC2OC(=O)C(Cl)=C2Cl)C(Cl)=C1Cl (centres undefined) | – | – | – | – | – | 21.5 µM | – | – |
| COC1C(O)C(C)OC(O[C@@H]2C[C@H]3CC[C@@H]4[C@H](CC[C@]5(C)[C@@H](C6=CC(=O)OC6)CC[C@]45O)[C@@]3(C)[C@H](O)C2)C1O (some centres undefined) | – | – | – | – | – | 0.0838 µM | – | – |
| O=C(NC1C=Nc2ccccc2NC1=O)c1ccccc1Cl (centres undefined) | > 100 µM | > 100 µM | > 100 µM | > 100 µM | > 100 µM | – | > 100 µM | – |
| OC1c2ccccc2C2C(O)c3ccccc3C12 (centres undefined) | – | > 100 µM | > 100 µM | – | > 100 µM | – | > 100 µM | – |
| CCOC(=O)c1cn(CC)c2cc3c(cc2c1=O)SCS3 | – | > 100 µM | > 100 µM | – | > 100 µM | – | > 100 µM | – |
| CCN(CC)CCC(=O)O[C@H]1CC[C@H](CC(C)[C@H]2CC(=O)C(C)C=C(C)[C@H](OC(=O)CCN(CC)CC)C(OC)C(=O)[C@@H](C)CC(C)/C=C/C=C/C=C(C)C(OC)CC3CC[C@H](C)[C@](O)(O3)C(=O)C(=O)N3CCCCC3C(=O)O2)CC1OC (some centres undefined) | – | 2.32 µM | > 4.99 µM | 1.7 µM | 1.74 µM | 4.38 µM and 2.12 µM | – | 1.96 µM |
| O=C1NN=C(c2ccc([N+](=O)[O-])cc2)C1n1nc(-c2ccccc2)c2ccccc2c1=O (centres undefined) | > 100 µM | > 68.3 µM | > 100 µM | > 100 µM | > 100 µM | – | > 100 µM | – |
| COc1cc(/C=C\c2ccc(Cl)cc2)cc(OC)c1OC | 19.1 µM | 19.4 µM | 0.372 µM | – | > 95.1 µM | – | > 100 µM | – |
| CC1=NN(c2ccccc2)C(=O)C1N=Nc1ccc(S(N)(=O)=O)cc1 (centres undefined) | – | – | – | – | – | > 100 µM | – | – |
| COc1ccc(/C=N\O[Si](C)(C)C(C)(C)C)cc1O[Si](C)(C)C(C)(C)C | 32.7 µM | 34.1 µM | > 100 µM | 36.1 µM | 29.9 µM | – | 37.4 µM | – |
| COC(=O)C1=C(c2ccc(Cl)cc2)C(O)N=C(NN)N1 (centres undefined) | > 100 µM | – | – | > 100 µM | > 100 µM | – | > 100 µM | – |
| CC(C)=CCc1cc(C2COc3cc4c(c(O)c3C2=O)C=CC(C)(C)O4)c(O)cc1O (centres undefined) | – | – | – | – | – | 27.5 µM | – | – |
| CN(C)C(=S)SCC(N)=O | – | – | – | – | – | > 100 µM | – | – |
